Source: paper PMC11596392, “Enhanced Antibacterial, Anti-Inflammatory, and Antibiofilm Activities of Tryptophan-Substituted Peptides Derived from Cecropin A-Melittin Hybrid Peptide BP100” (Molecules, 2024)

Tests used:
MDRPA (CCARM 2095) = format: cell-based, multidrug-resistant Pseudomonas aeruginosa; conditions: checkerboard, 37 °C, 24 h
Text: Multidrug-resistant pathogens pose a significant challenge to both human and animal health. The steady decline in the discovery of new antibiotics has exacerbated the difficulty in developing effective therapies for infection control. Consequently, there is an urgent need for alternative strategies that can combat pathogens without inducing drug resistance. One such strategy involves the combination of different antimicrobial agents. The effects of antimicrobial peptides (AMPs) combined with conventional antibiotics often surpass those of individual drugs. […] The primary advantage of synergistic combinations lies in their ability to lower the concentration of each antimicrobial agent required for effective antibacterial activity. This approach offers several benefits, including reduced production costs, a decreased risk of adverse side effects, diminished toxicity to mammalian cells, and a lower likelihood of drug resistance development. In light of these potential advantages, we investigated the synergistic effects of BP100 and the five selected analogs in combination with ciprofloxacin against multidrug-resistant Pseudomonas aeruginosa (MDRPA) using a checkerboard synergy assay. Ciprofloxacin, an antibiotic belonging to the fluoroquinolone class, is commonly used to treat various bacterial infections, including urinary tract infections and pneumonia. It exerts a bactericidal effect by inhibiting bacterial DNA gyrase, thereby disrupting DNA replication and transcription […]. The fractional inhibitory concentration index (FICI) results for BP100 and its selected analogs, when paired with ciprofloxacin against MDRPA, are detailed in Table 5. […] Such combinations may offer a valuable approach to enhancing the efficacy of existing antibiotics and potentially mitigating the development of antimicrobial resistance.
The synergistic effects of peptide-antibiotic combinations against methicillin-resistant Staphylococcus aureus (MRSA; CCARM 3089) and multidrug-resistant Pseudomonas aeruginosa (MDRPA; CCARM 2095) were evaluated using the fractional inhibitory concentration index (FICI) method. Antibiotics and peptides were subjected to two-fold serial dilutions, mixed in equal ratios, and combined with a bacterial suspension adjusted to approximately 10^6 CFU/mL. The resulting mixtures were distributed into microplate wells and incubated at 37 °C with orbital shaking at 200 rpm for 24 h. Bacterial growth was monitored by measuring the optical density at 600 nm (OD600). The FICI was calculated using the broth microdilution checkerboard method, defined as the sum of the ratios of the minimum inhibitory concentrations (MICs) of each agent in combination to their individual MICs, according to the following equation: FICI = (MIC of antibiotic in combination/MIC of antibiotic alone) + (MIC of peptide in combination/MIC of peptide alone). The interpretation of FICI values was as follows: FICI ≤ 0.5 indicates synergy; 0.5 < FICI ≤ 1.0 indicates an additive effect; 1.0 < FICI ≤ 4.0 indicates indifference; and FICI > 4.0 indicates antagonism.

[1] = tested on: MDRPA (CCARM 2095) biofilm formation; format: cell-based, multidrug-resistant Pseudomonas aeruginosa; conditions: overnight 37 °C, crystal violet staining
Text: Bacterial biofilms, comprising communities of bacterial cells encased in a matrix of polysaccharides and nucleic acids, present a significant challenge for conventional antibiotics due to the protective nature of this matrix. Biofilms can enhance bacterial resistance to antibiotics by up to 1000-fold compared to planktonic bacteria. To address this issue, there is an urgent need to discover and develop novel alternative therapeutic agents capable of effectively combating biofilm-forming bacteria. […] Our research specifically focused on evaluating the impact of BP100 and its analogs on biofilm formation and eradication using multidrug-resistant Pseudomonas aeruginosa (MDRPA), a common pathogen responsible for biofilm-mediated nosocomial infections. The adhered biomass was quantified using crystal violet staining, and the minimum biofilm inhibitory concentration (MBIC90) was determined as the lowest concentration required to inhibit 90% of biofilm growth relative to the positive control. […] Human cathelicidin LL-37 is well-documented for its potent antibiofilm properties.
The inhibitory activity of the peptides on biofilm formation was evaluated against multidrug-resistant Pseudomonas aeruginosa (MDRPA) (CCARM 2095) using a biofilm inhibition assay to determine the minimal biofilm inhibitory concentration (MBIC). Peptide solutions were serially diluted in sterile water and aliquoted (100 μL) into a 96-well Costar polypropylene plate (Corning Inc., Corning, NY, USA). An equal volume of MDRPA suspension in Mueller–Hinton Broth (MHB), adjusted to 1 × 10^6 CFU/mL, was added to each well, resulting in a final inoculum density of 5 × 10^5 CFU/mL. Following overnight incubation at 37 °C, bacterial growth was quantified by measuring the optical density (OD) at 595 nm. Planktonic cells were then discarded, and the attached biofilms were washed thrice with distilled water. Residual biofilms were stained with 0.1% crystal violet for five minutes, washed to remove non-adherent dye, and subsequently destained using 95% ethanol. The OD at 595 nm was measured again to assess the biofilm mass. Control wells contained untreated bacteria. The MBIC was defined as the lowest peptide concentration that inhibited any residual crystal violet staining or biofilm formation. All assays were conducted in triplicate to ensure reproducibility. This method allows for the quantitative assessment of the peptides’ ability to prevent biofilm formation, a critical virulence factor in many bacterial infections, particularly those caused by multidrug-resistant strains.

[2] = tested on: preformed MDRPA (CCARM 2095) biofilms; format: cell-based, multidrug-resistant Pseudomonas aeruginosa; conditions: 24 h treatment
Description: While preventing biofilm formation on surfaces is crucial, treating established biofilm infections presents a significant challenge due to the extracellular polymeric substance (EPS) matrix hindering antibiotic penetration and the high cell density within mature biofilms. To address this challenge, we evaluated the ability of BP100 and its analogs to eradicate established MDRPA biofilms over a 24 h period. The minimum biofilm eradication concentration (MBEC90) was determined using crystal violet staining as the lowest concentration that reduced biomass by more than 90%. Among these peptides, BP5, BP6, BP7, BP8, BP9, BP11, and BP13 eradicated preformed MDRPA biofilms by more than 90% at a concentration of 8 μM (Figure 3c,d and Table 3).
The minimal biofilm eradication concentration (MBEC) for peptides against the multidrug-resistant Pseudomonas aeruginosa (MDRPA) (CCARM 2095) strain was assessed using the Calgary Biofilm Device (CBD), supplied by Innovotech, Edmonton, AB, Canada. A bacterial suspension with a density of (1 × 10^6) CFU/mL in (150 µL) of Luria–Bertani (LB) media was dispensed into each well of a 96-well microtiter plate, which was equipped with a peg lid (Innovotech, product code: 19111). This plate was incubated at 37 °C for 24 h with agitation at 110 rpm, promoting biofilm formation on the pegs. Subsequently, the peg lid was washed with phosphate-buffered saline (PBS, 0.01 M) and relocated to a fresh plate containing varying peptide concentrations (200 µL per well). The biofilms were then subjected to these peptides under the same incubation conditions. After another PBS rinse, the peg lid was moved to a recovery plate filled with (200 µL) of LB media per well. To detach the biofilms from the pegs, the recovery plate underwent sonication in a water bath for 10 to 15 min. Finally, the recovery plate was incubated at 37 °C for 24 h with agitation at 110 rpm, allowing any surviving bacteria to proliferate and cause turbidity. The MBEC is defined as the lowest concentration of peptides that inhibited turbidity formation in the recovery plate in comparison to sterility controls. This experiment was conducted in triplicate, and the median value from each trial was recorded.

bacterial strains = assay: Geometric mean (GM) of MIC values over the bacterial strains; format: cell-based; conditions: over the 11 bacterial strains of Table 2
Description: The antibacterial efficacy of the synthesized peptides was evaluated by determining the minimal inhibitory concentrations (MICs) against six standard bacterial strains and five drug-resistant bacterial strains using the Clinical and Laboratory Standards Institute (CLSI) microdilution method. Melittin served as the positive control.
The minimal inhibitory concentrations (MICs) of the peptides against bacterial strains were determined using a modified broth-microdilution method in accordance with the National Committee for Clinical Laboratory Standards (NCCLS) guidelines. Overnight cultures were diluted in cation-adjusted Mueller–Hinton Broth (MHB) to achieve an inoculum density of 2 × 10^6 CFU/mL. A two-fold serial dilution of the peptide solution (100 μL) was introduced into microtiter plates, followed by the addition of 100 μL of bacterial suspension. The plates were then incubated at 37 °C for 24 h to determine the MICs. Wells containing only culture media served as negative controls, while those with added bacteria functioned as positive controls. The MIC, expressed in μM, was defined as the lowest peptide concentration that prevented visible bacterial growth. […]

SMILES: O=C(O)c1cn(C2CC2)c2cc(N3CCNCC3)c(F)cc2c1=O [ciprofloxacin, reference compound]
- MICB: MIC of ciprofloxacin alone (MDRPA (CCARM 2095)): 2048 µg/mL

SMILES: CC[C@H](C)[C@H](NC(=O)[C@H](CCCCN)NC(=O)[C@H](CCC(=O)O)NC(=O)[C@H](CCCCN)NC(=O)[C@H](CO)NC(=O)[C@H](CCCCN)NC(=O)[C@H](CCCNC(=N)N)NC(=O)[C@H](Cc1ccccc1)NC(=O)[C@H](Cc1ccccc1)NC(=O)[C@H](CC(=O)O)NC(=O)CNC(=O)[C@H](CC(C)C)NC(=O)[C@@H](N)CC(C)C)C(=O)NCC(=O)N[C@@H](CCCCN)C(=O)N[C@@H](CCC(=O)O)C(=O)N[C@@H](Cc1ccccc1)C(=O)N[C@@H](CCCCN)C(=O)N[C@@H](CCCNC(=N)N)C(=O)N[C@H](C(=O)N[C@H](C(=O)N[C@@H](CCC(N)=O)C(=O)N[C@@H](CCCNC(=N)N)C(=O)N[C@H](C(=O)N[C@@H](CCCCN)C(=O)N[C@@H](CC(=O)O)C(=O)N[C@@H](Cc1ccccc1)C(=O)N[C@@H](CC(C)C)C(=O)N[C@@H](CCCNC(=N)N)C(=O)N[C@@H](CC(N)=O)C(=O)N[C@@H](CC(C)C)C(=O)N[C@H](C(=O)N1CCC[C@H]1C(=O)N[C@@H](CCCNC(=N)N)C(=O)N[C@H](C(=O)N[C@@H](CCC(=O)O)C(=O)N[C@@H](CO)C(=O)O)[C@@H](C)O)C(C)C)[C@@H](C)CC)C(C)C)[C@@H](C)CC [LL-37, reference compound]
- MBIC50 ([1]; 50% inhibition): 32 to 64 µM
- MBIC90 ([1]; 90% inhibition): 64 µM
- MBEC50 ([2]; 50% eradication): 32 µM
- MBEC90 ([2]; 90% eradication): > 64 µM

SMILES: CC[C@H](C)[C@H](NC(=O)CN)C(=O)NCC(=O)N[C@@H](C)C(=O)N[C@H](C(=O)N[C@@H](CC(C)C)C(=O)N[C@@H](CCCCN)C(=O)N[C@H](C(=O)N[C@@H](CC(C)C)C(=O)N[C@H](C(=O)N[C@H](C(=O)NCC(=O)N[C@@H](CC(C)C)C(=O)N1CCC[C@H]1C(=O)N[C@@H](C)C(=O)N[C@@H](CC(C)C)C(=O)N[C@H](C(=O)N[C@@H](CO)C(=O)N[C@@H](Cc1c[nH]c2ccccc12)C(=O)N[C@H](C(=O)N[C@@H](CCCCN)C(=O)N[C@@H](CCCNC(=N)N)C(=O)N[C@@H](CCCCN)C(=O)N[C@@H](CCCNC(=N)N)C(=O)N[C@@H](CCC(N)=O)C(=O)N[C@@H](CCC(N)=O)C(N)=O)[C@@H](C)CC)[C@@H](C)CC)[C@@H](C)O)[C@@H](C)O)C(C)C)C(C)C [ME, melittin]
- GM (geometric mean of MIC values) (bacterial strains): 24.0 µM
